The source of these data is patent EP0183129A1, “Quinolonecarboxylic acid derivatives” (KYORIN PHARMACEUTICAL CO., LTD., priority 1984, dated 1986).

Converted amounts (≈) assume the structure as drawn. Where a name gives a salt, the structure may show the parent alone. Read-outs that look alike come from different tables or passages of the source.

Data set [1] deals with S. pneumoniae 24. Kind of data set: In vitro antibacterial activity, MIC (clinical isolates). It is filed as cell-based. The conditions noted are these: Streptococcus pneumoniae.
In data set [2] the test system is C. difficile I-E. Kind of data set: In vitro antibacterial activity, MIC (standard strain). It counts as cell-based. The conditions noted are these: Clostridioides difficile; C. difficile I-E; 10^6 cells/ml; standard strain; read-out: MIC.
Data set [3] can be described thus: Absorption and distribution: concentration in blood and organs after oral administration, bioassay by cup method. It counts as in vivo. The conditions noted are these: rat, rats, fasted, 10 mg/kg oral, Mean ± S.D. (n=5); for concentration at 0.5 h: 1/2 hr after administration; for concentration at 1 h: 1 hr after administration; for concentration at 2 h: 2 hr after administration; for concentration at 4 h: 4 hr after administration; for concentration at 6 h: 6 hr after administration; for concentration at 8 h: 8 hr after administration.

Data set [4] concerns E. coli ML4707. Kind of data set: In vivo antibacterial activity against systemic infection in mice. The arrangement: species or system mice (ICR-S). The conditions noted are these: for ED50: Escherichia coli, ML4707, mice (ICR-S), oral, an hour after intraperitoneal infection, challenge dose 2.7 x 10^6 ~ 8.8 x 10^6 cfu/mouse, read-out: ED50 E. coli ML4707; for activity against gram-negative bacterial infections compared with the reference compounds: systemic infection in mice, result in words. As to the method: Experiment-2 In vivo antibacterial activity against systemic infection in mice (ICR-S)
The infections were produced by intraperitoneal injection of a suspension of the bacterial culture corresponding to the germ studied. The products were administered orally at an hour after the infection.

Data set [5] is described as follows: Urinary and bile excretion after oral administration, bioassay by cup method. It counts as in vivo. As to conditions: rat, fasted rats, 10 mg/kg oral, Mean ± S.D. (n=5).
The mark [6] stands for this setting: S. pneumoniae 24, 10^6 cells/ml, clinical isolate, read-out: MIC.
The mark [7] stands for this setting: kidney, read-out: Concentration in organs: Kidney.
The mark [8] stands for this setting: liver, read-out: Concentration in organs: Liver.
Setting [9] is: lung, read-out: Concentration in organs: Lung.
Setting [10] is: serum, read-out: Concentration in organs: Serum.
Where [11] appears, read: bile 0 ~ 3 hr, read-out: Concentration, bile.
Setting [12] is: bile 0 ~ 3 hr, read-out: Recovery, bile.
Setting [13] is: bile 0 ~ 6 hr, read-out: Recovery, bile.
The mark [14] stands for this setting: bile 0 ~ 24 hr, read-out: Recovery, bile.
The mark [15] stands for this setting: bile 3 ~ 6 hr, read-out: Concentration, bile.
Where [16] appears, read: bile 6 ~ 24 hr, read-out: Concentration, bile.
[17] abbreviates: urine 0 ~ 3 hr, read-out: Concentration, urine.
The mark [18] stands for this setting: urine 0 ~ 3 hr, read-out: Recovery, urine.
The mark [19] stands for this setting: urine 0 ~ 6 hr, read-out: Recovery, urine.
[20] abbreviates: urine 0 ~ 24 hr, read-out: Recovery, urine.
The mark [21] stands for this setting: urine 3 ~ 6 hr, read-out: Concentration, urine.
[22] abbreviates: urine 6 ~ 24 hr, read-out: Concentration, urine.

As for `NCC1CCN(c2c(F)cc3c(=O)c(C(=O)O)cn(C4CC4)c3c2F)C1` (stereo not drawn) [Example 1, 7-(3-Aminomethyl-l-pyrrolidinyl)-l-cyclopropyl-6,8-difluoro-1,4-dihydro-4-oxo-3-quinolinecarboxylic acid hydrochloride], the MIC in data set [1] (setting [6]) was 0.05 µg/mL; in data set [2] it was 1.56 µg/mL.
Regarding `CCNCC1CCN(c2c(F)cc3c(=O)c(C(=O)O)cn(C4CC4)c3c2F)C1` (stereo not drawn) [Example 2, l-Cyclopropyl-7-(3-ethylaminomethyl-l-pyrrolidinyl)-6,8-difluoro-l,4-dihydro-4-oxo-3-quinolinecarboxylic acid hydrochloride], the concentration at 0.5 h stood at 8500 ± 310 ng/g in data set [3] (setting [7]), 9480 ± 440 ng/g in data set [3] (setting [8]), 3840 ± 420 ng/g in data set [3] (setting [9]) and 1470 ± 190 ng/mL in data set [3] (setting [10]). The concentration at 1 h in data set [3] (setting [7]) was 6720 ± 540 ng/g; in data set [3] (setting [8]), 6240 ± 530 ng/g; in data set [3] (setting [9]) it was 2940 ± 220 ng/g; in data set [3] (setting [10]), 1300 ± 200 ng/mL. Moreover, the concentration at 2 h in data set [3] (setting [7]) amounted to 4660 ± 300 ng/g; in data set [3] (setting [8]) it was 4320 ± 430 ng/g; in data set [3] (setting [9]) it was 1920 ± 330 ng/g; in data set [3] (setting [10]), 900 ± 190 ng/mL. For the same compound, the concentration at 4 h was determined as 2620 ± 590 ng/g in data set [3] (setting [7]), 2360 ± 480 ng/g in data set [3] (setting [8]), 1120 ± 310 ng/g in data set [3] (setting [9]) and 420 ± 150 ng/mL in data set [3] (setting [10]). In addition, the concentration at 6 h in data set [3] (setting [7]) amounted to 1860 ± 110 ng/g; in data set [3] (setting [8]), 1620 ± 290 ng/g; in data set [3] (setting [9]), 780 ± 190 ng/g; in data set [3] (setting [10]), 260 ± 90 ng/mL; in data set [5] (setting [15]), 16100 ± 6200 ng/mL; in data set [5] (setting [21]), 115000 ± 61000 ng/mL. Also, the concentration at 8 h in data set [3] (setting [7]) turned out to be 980 ± 220 ng/g; in data set [3] (setting [8]), 820 ± 190 ng/g; in data set [3] (setting [9]), 380 ± 80 ng/g; in data set [3] (setting [10]), 120 ± 40 ng/mL. The figures for the MIC in data set [1] (setting [6]) and in data set [2] were 0.05 µg/mL and 0.78 µg/mL, respectively. In addition, the ED50 in data set [4] amounted to 0.8 mg/kg. The “activity against gram-negative bacterial infections compared with the reference compounds” value in data set [4] was “greater activity against gram-negative bacterial infections than the reference compounds”. Also, the concentration at 3 h in data set [5] (setting [11]) came out at 17100 ± 10000 ng/mL; in data set [5] (setting [17]), 44200 ± 27900 ng/mL. Besides, the dose excreted at 3 h in data set [5] (setting [12]) amounted to 2.4 ± 1.6%; in data set [5] (setting [18]), 3.5 ± 2%. Moreover, the values for the dose excreted at 6 h in data set [5] (setting [13]) and in data set [5] (setting [19]) were 4.3 ± 2.1% and 6.7 ± 4.3%, respectively. Also, the dose excreted at 24 h in data set [5] (setting [14]) was 9.7 ± 3.1%; in data set [5] (setting [20]) it was 13.5 ± 4.6%. The concentration at 24 h came out at 10100 ± 2300 ng/mL in data set [5] (setting [16]) and 22100 ± 9800 ng/mL in data set [5] (setting [22]).
For the compound `CNCC1CCN(c2c(F)cc3c(=O)c(C(=O)O)cn(C4CC4)c3c2F)C1` (stereo not drawn) [Example 8, 1-Cyclopropyl-6,8-difluoro-1,4-dihydro-7-(3-methylaminomethyl-l-pyrrolidinyl)-4-oxo-3-quinolinecarboxylic acid hydrochloride], the MIC worked out at 0.05 µg/mL in data set [1] (setting [6]) and 1.56 µg/mL in data set [2]. In addition, the ED50 in data set [4] was determined as 1.9 mg/kg.
Consider `CCNCC1CCN(c2c(F)cc3c(=O)c(C(=O)O)cn(C4CC4)c3c2Cl)C1` (stereo not drawn) [Example 13, 8-Chloro-l-cyclorpropyl-6-fluoro-1,4-dihydro-7-(3-ethylaminomethyl-l-pyrrolidinyl)-4-oxo-3-quinolinecarboxylic acid], for which the concentration at 0.5 h in data set [3] (setting [7]) amounted to 5630 ± 640 ng/g; in data set [3] (setting [8]), 7780 ± 910 ng/g; in data set [3] (setting [9]), 3170 ± 710 ng/g; in data set [3] (setting [10]), 1720 ± 370 ng/mL. Further, the concentration at 1 h in data set [3] (setting [7]) was found to be 4700 ± 600 ng/g; in data set [3] (setting [8]), 5710 ± 630 ng/g; in data set [3] (setting [9]), 2660 ± 420 ng/g; in data set [3] (setting [10]), 1120 ± 300 ng/mL. Besides, the concentration at 2 h came out at 2810 ± 250 ng/g in data set [3] (setting [7]), 3140 ± 360 ng/g in data set [3] (setting [8]), 1540 ± 210 ng/g in data set [3] (setting [9]) and 570 ± 80 ng/mL in data set [3] (setting [10]). Besides, the concentration at 4 h in data set [3] (setting [7]) stood at 1470 ± 250 ng/g; in data set [3] (setting [8]), 1340 ± 120 ng/g; in data set [3] (setting [9]) it was 700 ± 80 ng/g; in data set [3] (setting [10]), 230 ± 40 ng/mL. Further, the concentration at 6 h turned out to be 840 ± 90 ng/g in data set [3] (setting [7]); 860 ± 150 ng/g in data set [3] (setting [8]); 420 ± 50 ng/g in data set [3] (setting [9]); 100 ± 10 ng/mL in data set [3] (setting [10]); 19700 ± 8000 ng/mL in data set [5] (setting [15]); 39400 ± 13300 ng/mL in data set [5] (setting [21]). Besides, the concentration at 8 h was 890 ± 400 ng/g in data set [3] (setting [7]), 1130 ± 520 ng/g in data set [3] (setting [8]), 450 ± 150 ng/g in data set [3] (setting [9]) and 140 ± 80 ng/mL in data set [3] (setting [10]). Further, the MIC in data set [1] (setting [6]) was determined as 0.05 µg/mL (≈ 0.123 µM). In data set [4], the ED50 worked out at 0.7 mg/kg. Besides, in data set [4], the “activity against gram-negative bacterial infections compared with the reference compounds” value is listed as “greater activity against gram-negative bacterial infections than the reference compounds”. Further, the concentration at 3 h turned out to be 36400 ± 9900 ng/mL in data set [5] (setting [11]) and 36100 ± 9200 ng/mL in data set [5] (setting [17]). For the same compound, the dose excreted at 3 h in data set [5] (setting [12]) was 4.9 ± 1.5%; in data set [5] (setting [18]), 2.7 ± 2.1%. In addition, the dose excreted at 6 h in data set [5] (setting [13]) was found to be 6.9 ± 1.4%; in data set [5] (setting [19]), 4.8 ± 1.8%. The results for the dose excreted at 24 h in data set [5] (setting [14]) and in data set [5] (setting [20]) were 12.9 ± 4.9% and 7.4 ± 1.5%, respectively. Also, the concentration at 24 h in data set [5] (setting [16]) stood at 11300 ± 8300 ng/mL; in data set [5] (setting [22]) it was 7600 ± 3600 ng/mL.
`CCn1cc(C(=O)O)c(=O)c2cc(F)c(N3CCNCC3)cc21` [NFLX, Norfloxacin, reference compound]: the MIC in data set [1] (24) was 12.5 µg/mL (≈ 39.1 µM); in data set [2], 50 µg/mL (≈ 157 µM).

One may read the MIC as the lowest concentration found to suppress growth. The term ED50 denotes the dose at which the effect has come halfway, by size or by number of responders.
